Measurements reported in patent publication US20250186600A1, “EXCIPIENT COMPOUNDS FOR PROTEIN FORMULATIONS” (Comera Life Sciences, Inc., priority 2020, published 2025).
Counter-ions that a name gives are not always drawn. Residues, ends and D or L forms follow the SMILES beside them.

Key:
omalizumab [1] = experiment: Diffusion interaction parameter kD of omalizumab by DLS (Example 62); conditions: omalizumab 10 to 0.6 mg/mL, 0.1M excipient, His HCl pH 6.0, 25° C.
omalizumab [2] = experiment: Viscosity of omalizumab solution by DLS of gold nanoparticles (Example 62); conditions: omalizumab approximately 200 mg/mL, excipient 0.1M or lower, His HCl pH 6.0, 25° C.
ustekinumab [3] = experiment: Urea denaturation, Sypro orange fluorescence (Example 44); format: physicochemical; conditions: excipient 5 mg/mL, ustekinumab 1 mg/mL, 6M urea, 20 mM histidine pH 6.0, Sypro orange fluorescence
Excerpt: It is known that urea denatures proteins in solution and causes them to unfold. The screening methodology in this example involved adding a specific concentration of urea to a therapeutic protein solution such as ustekinumab. […] One method to track protein unfolding involves the use of extrinsic fluorescent dyes such as Sypro orange. Sypro orange binds to hydrophobic regions in the unfolded protein structure, leading to an increase in the fluorescence signal observed. Measuring the differences in the fluorescence intensity of unfolded protein-Sypro orange complex in presence of different excipients thus allows one to identify any stabilizing effects.
All excipients used in this Example, listed in Table 45 below, were of the highest purity, and were obtained from Sigma Aldrich (St. Louis, MO) or Cayman Chemical (Ann Arbor, MI). […] This urea stock solution was then added to a final concentration of 6M to produce the test solutions (excipient plus protein plus urea). […] The pH of the mixture was rechecked and confirmed to be at pH 6.0. The test solutions were allowed to incubate at room temperature for 30 min.

omalizumab [4] = experiment: DLS viscosity of concentrated omalizumab (Example 54); format: physicochemical; conditions: concentrated omalizumab 9 parts : 1 part excipient stock (1 M or solubility limit), 20 mM HisHCl pH 6
Description: Hordenine HCl was purchased from Bulk Supplements (Henderson, NV).
The concentrated protein formulation was then combined with a stock excipient solution or a control at a ratio of 9 parts protein: 1 part excipient solution or buffer (for the control), and aliquots were added to the wells of a 384 well microplate (Aurora Microplates, Whitefish, MT). […] After the microplate was shaken, 2 microliters of a 5-fold dilution of polyethylene glycol surface-modified gold nanoparticles having a diameter of 100 nm (nanoComposix, San Diego, CA) in 20 mM His HCl were added to each sample well. […] In this example, the ratio of apparent radius to the actual radius of the gold nanoparticle was multiplied by the viscosity of water at 25° C. to calculate the viscosity of the protein formulation in centipoise (cP).

ustekinumab [5] = experiment: Stabilization at low pH, Sypro orange fluorescence (Example 45); conditions: excipient 5 mg/mL, ustekinumab 1 mg/mL, glycine acidification buffer pH 2.6, Sypro orange fluorescence

## O=C(O)/C=C/c1ccc(O)c(O)c1 [caffeic acid]
Omalizumab [1]; Table 62A series
  kD: -33.9 mL/g
Omalizumab [2]; Table 62A series
  Viscosity normalized to control: 0.73

## NCCCC[C@H](N)C(=O)O [lysine]
Omalizumab [1]; Table 62B series
  kD: -10.1 mL/g
Omalizumab [2]; Table 62B series
  Viscosity normalized to control: 0.46

## Nc1ccc(C(=O)O)cc1 [p-aminobenzoic acid]
Ustekinumab [3]
  % increased stability: 2.7%

## NC(=NO)c1ccccc1 [benzamide oxime]
Ustekinumab [3]
  % increased stability: 1.4%

## O=S(=O)(O)c1cccc2c(S(=O)(=O)O)cccc12 [1,5-naphthalenedisulfonic acid]
Omalizumab [1]; Table 62A series
  kD: -25.1 mL/g
Omalizumab [2]; Table 62A series
  Viscosity normalized to control: 0.83

## O=C(O)c1cccnc1 [nicotinic acid]
Omalizumab [1]; Table 62B series
  kD: -24.5 mL/g
Omalizumab [2]; Table 62B series
  Viscosity normalized to control: 0.55

## O=C(O)[C@]1(O)C[C@@H](O)[C@@H](O)[C@H](O)C1 [quinic acid]
Omalizumab [1]; Table 62B series
  kD: -24.2 mL/g
Omalizumab [2]; Table 62B series
  Viscosity normalized to control: 0.67

## NCCCN [1,3-diaminopropane]
Omalizumab [1]; Table 62B series
  kD: -11.4 mL/g
Omalizumab [2]; Table 62B series
  Viscosity normalized to control: 0.22

## NCCCN [1,3-Diaminopropane]
Omalizumab [1]; Table 62A series
  kD: -11.3 mL/g
Omalizumab [2]; Table 62A series
  Viscosity normalized to control: 0.49

## CN1CCN(C)C1=O [1,3-Dimethyl-2-imidazolidinone]
Omalizumab [1]; Table 62A series
  kD: -30.9 mL/g
Omalizumab [2]; Table 62A series
  Viscosity normalized to control: 0.98

## CCCCc1ncc[nH]1 [Excipient 2-butylimidazole, 2-butylimidazole]
Omalizumab [4]
  DLS Viscosity, Replicate 1: 26.0 cP

## NCC(=O)NCC(=O)NCC(=O)NCC(=O)O [Tetraglycine] (H-GGGG-OH)
Omalizumab [4]
  DLS Viscosity, Replicate 1: 89.7 cP
  DLS Viscosity, Replicate 2: 72.2 cP

## CN[C@@H]1[C@H](O)[C@H](NC)[C@H]2O[C@@]3(O)C(=O)C[C@@H](C)O[C@H]3O[C@@H]2[C@H]1O [Spectinomycin]
Omalizumab [4]
  DLS Viscosity, Replicate 1: 60.1 cP
  DLS Viscosity, Replicate 2: 33.9 cP

## NCCS [cysteamine HCl]
Omalizumab [1]; Table 62B series
  kD: -18.5 mL/g
Omalizumab [2]; Table 62B series
  Viscosity normalized to control: 0.73

## OC[C@@H](O)[C@@H](O[C@@H]1O[C@H](CO)[C@H](O)[C@H](O)[C@H]1O)[C@H](O)[C@@H](O)CO [Lactitol]
Ustekinumab [5]
  % change in stability: 0.6%

## O=C(O)c1cccc(O)n1 [6-hydroxypyridine-2-carboxylic acid]
Omalizumab [1]; Table 62A series
  kD: -31.9 mL/g
Omalizumab [2]; Table 62A series
  Viscosity normalized to control: 0.93

## Nc1nc(=O)c2c([nH]1)NCC(CNc1ccc(C(=O)N[C@@H](CCC(=O)[O-])C(=O)[O-])cc1)N2C=O.[Ca+2] (stereo partly drawn) [folinic acid calcium salt]
Omalizumab [1]; Table 62B series
  kD: -34.9 mL/g
Omalizumab [2]; Table 62B series
  Viscosity normalized to control: 0.93

## COC(=O)[C@H](Cc1ccccc1)NC(=O)[C@@H](N)CC(=O)O [Aspartame] (H-Asp-Phe-OMe)
Omalizumab [2]; Table 62A series
  Viscosity normalized to control: 0.71

## CNCC(=O)O [sarcosine]
Omalizumab [1]; Table 62B series
  kD: -29.9 mL/g
Omalizumab [2]; Table 62B series
  Viscosity normalized to control: 1.33

## OCCN(CCO)c1nc(N2CCCCC2)c2nc(N(CCO)CCO)nc(N3CCCCC3)c2n1 [dipyridamole]
Omalizumab [1]; Table 62B series
  kD: -31.2 mL/g
Omalizumab [2]; Table 62B series
  Viscosity normalized to control: 1.10

## Pyridyl ethylamine
Ustekinumab [5]
  % change in stability: 85.6%

## CC[N+](CC)(CC)CC.Cl [Tetraethylammonium HCl]
Omalizumab [4]
  DLS Viscosity, Replicate 1: 73.7 cP
  DLS Viscosity, Replicate 2: 58.3 cP

## NC(=NO)c1ccccc1 [Benzamide oxime]
Ustekinumab [5]
  % change in stability: 70.6%

## Nc1ccncc1 [Excipient 4-aminopyridine, 4-aminopyridine]
Omalizumab [1]; Table 62B series
  kD: -22.5 mL/g
Omalizumab [2]; Table 62B series
  Viscosity normalized to control: 0.59

## NC(=O)c1ccc[n+]([C@@H]2O[C@H](COP(=O)([O-])O)[C@@H](O)[C@H]2O)c1 [nicotinamide mononucleotide]
Omalizumab [1]; Table 62B series
  kD: -31.4 mL/g
Omalizumab [2]; Table 62B series
  Viscosity normalized to control: 0.83

## O=C(O)CCCc1ccccc1 [4-phenylbutyric acid]
Ustekinumab [3]
  % increased stability: 9.0%

## Cc1ncc[nH]1 [Excipient 2-methylimidazole, 2-methylimidazole]
Omalizumab [4]
  DLS Viscosity, Replicate 1: 65.6 cP
  DLS Viscosity, Replicate 2: 81.3 cP

## CCc1ncc[nH]1 [Excipient 2-ethylimidazole, 2-ethylimidazole]
Omalizumab [4]
  DLS Viscosity, Replicate 1: 57.5 cP
  DLS Viscosity, Replicate 2: 71.8 cP

## NCc1cccc(CN)c1 [m-xylylenediamine]
Omalizumab [1]; Table 62B series
  kD: -13.1 mL/g
Omalizumab [2]; Table 62B series
  Viscosity normalized to control: 0.22

## Cn1ccnc1 [Excipient 1-methylimidazole, 1-methylimidazole]
Omalizumab [4]
  DLS Viscosity, Replicate 1: 53.4 cP
  DLS Viscosity, Replicate 2: 54.8 cP

## NCCc1c[nH]c2ccccc12 [Tryptamine]
Ustekinumab [3]
  % increased stability: 11.6%

## NCCO [ethanolamine HCl]
Omalizumab [1]; Table 62B series
  kD: -22.4 mL/g
Omalizumab [2]; Table 62B series
  Viscosity normalized to control: 0.51

## OC[C@H]1OC(O)[C@@H](O)[C@@H](O)[C@@H]1O (stereo partly drawn) [Mannose]
Ustekinumab [5]
  % change in stability: 9.4%

## CN(C)CCc1ccc(O)cc1 [Hordenine HCl]
Omalizumab [4]
  DLS Viscosity, Replicate 1: 36.9 cP
  DLS Viscosity, Replicate 2: 22.8 cP

## NC(C(=O)O)C(O)c1ccccc1 (racemic) [DL-3-phenylserine]
Omalizumab [1]; Table 62B series
  kD: -30.7 mL/g
Omalizumab [2]; Table 62B series
  Viscosity normalized to control: 1.04

## NCCCCNCCCN [spermidine]
Omalizumab [1]; Table 62B series
  kD: -13.7 mL/g
Omalizumab [2]; Table 62B series
  Viscosity normalized to control: 0.31

## O=C(O)c1ccncc1 [isonicotinic acid]
Ustekinumab [3]
  % increased stability: 4.4%
